Values quoted from earlier work, collected in patent US20260102408A1, “CONTRACEPTIVE COMPOSITIONS WITH REDUCED ADVERSE EFFECTS” (ESTETRA SRL, priority 2020, published 2026).

Conditions: single oral dose; Blode H et al. Study 1; Caucasian; geometric mean

AUCinf of DRSP: 506 ng·h/mL
Cmax of DRSP: 33.9 ng/mL
Structure (SMILES): C[C@]12CCC(=O)C=C1[C@@H]1C[C@@H]1[C@H]1[C@@H]3[C@@H]4C[C@@H]4[C@@]4(CCC(=O)O4)[C@@]3(C)CC[C@@H]12 [DRSP 3 mg, drospirenone]
